Data from the NIST ThermoML archive (doi:10.1016/j.jct.2013.07.003).

How the values were obtained:
[1] = 298.2 K; 101.33 kPa; Liquid; Vibrating tube method
[2] = refractive index (Na D-line) (dimensionless); conditions: 101.33 kPa, Liquid, Standard Abbe refractometry
[3] = relative permittivity at various frequencies (dimensionless); conditions: 101 kPa, Liquid, Frequency=0.1 MHz, Coaxial cylinder capacitor
[4] = refractive index (Na D-line) (dimensionless); xn = mol fraction of the nth substance listed; conditions: 101 kPa, Liquid, Standard Abbe refractometry, x2 = 0
[5] = relative permittivity at various frequencies (dimensionless); xn = mol fraction of the nth substance listed; conditions: 101 kPa, Liquid, Frequency=0.1 MHz, Coaxial cylinder capacitor, x2 = 0

CCCCCCCCO [octan-1-ol]
Conditions | mass density [kg/m3]
[1] | 821.69

Conditions | refractive index, 298.2 K | refractive index, 303.2 K | refractive index, 308.2 K | refractive index, 313.2 K | refractive index, 318.2 K | relative permittivity, 298.2 K | relative permittivity, 303.2 K | relative permittivity, 308.2 K | relative permittivity, 313.2 K | relative permittivity, 318.2 K
[2] | 1.4276 | 1.4254 | 1.423 | 1.4205 | 1.4184 | – | – | – | – | –
[3] | – | – | – | – | – | 9.81 | 9.38 | 8.94 | 8.52 | 8.11

CC(O)CCO (stereo not drawn) [1,3-butanediol]
Conditions | mass density [kg/m3]
[1] | 1001.2

Conditions | refractive index, 298.2 K | refractive index, 303.2 K | refractive index, 308.2 K | refractive index, 313.2 K | refractive index, 318.2 K | relative permittivity, 298.2 K | relative permittivity, 303.2 K | relative permittivity, 308.2 K | relative permittivity, 313.2 K | relative permittivity, 318.2 K
[2] | 1.4384 | 1.4371 | 1.4356 | 1.4341 | 1.4328 | – | – | – | – | –
[3] | – | – | – | – | – | 28.52 | 27.66 | 26.77 | 25.98 | 25.22

CCCCCCCCO [octan-1-ol] + CC(O)CCO
Conditions | refractive index, 298.2 K | refractive index, 303.2 K | refractive index, 308.2 K | refractive index, 313.2 K | refractive index, 318.2 K | relative permittivity, 298.2 K | relative permittivity, 303.2 K | relative permittivity, 308.2 K | relative permittivity, 313.2 K | relative permittivity, 318.2 K
[4] | 1.4276 | 1.4254 | 1.423 | 1.4205 | 1.4184 | – | – | – | – | –
[5] | – | – | – | – | – | 9.81 | 9.38 | 8.94 | 8.52 | 8.11

C1COCCO1 [1,4-dioxane] + CC(O)CCO
Conditions | refractive index, 298.2 K | refractive index, 303.2 K | refractive index, 308.2 K | refractive index, 313.2 K | refractive index, 318.2 K | relative permittivity, 298.2 K | relative permittivity, 303.2 K | relative permittivity, 308.2 K | relative permittivity, 313.2 K | relative permittivity, 318.2 K
[4] | 1.4201 | 1.4174 | 1.4145 | 1.4118 | 1.4088 | – | – | – | – | –
[5] | – | – | – | – | – | 2.23 | 2.22 | 2.21 | 2.2 | 2.19

C1COCCO1 [1,4-dioxane]
Conditions | mass density [kg/m3]
[1] | 1027.89

Conditions | refractive index, 298.2 K | refractive index, 303.2 K | refractive index, 308.2 K | refractive index, 313.2 K | refractive index, 318.2 K | relative permittivity, 298.2 K | relative permittivity, 303.2 K | relative permittivity, 308.2 K | relative permittivity, 313.2 K | relative permittivity, 318.2 K
[2] | 1.4201 | 1.4174 | 1.4145 | 1.4118 | 1.4088 | – | – | – | – | –
[3] | – | – | – | – | – | 2.23 | 2.22 | 2.21 | 2.2 | 2.19
